Tests used:
[1] = Stability on handling and storage of the salts; assay type: physicochemical; settings: storage for longer time; no significant or measurable change
[2] = cited from earlier work
[3] = powder; cited from earlier work
[4] = class IV = low solubility and low permeability; cited from earlier work

Structure (SMILES) | stability to handle and store for longer time (morphology and physicochemical characteristics) [1] | solubility in acidic pH ([2]; acidic pH) | solubility in water ([2]; water) | hygroscopicity [3] | Biopharmaceutics Classification System (BCS) class [4]
C[C@@H](Oc1cc(-c2cnn(C3CCNCC3)c2)cnc1N)c1c(Cl)ccc(F)c1Cl [Crizotinib Ferulate] | adequately stable |  |  |  | 
C[C@@H](Oc1cc(-c2cnn(C3CCNCC3)c2)cnc1N)c1c(Cl)ccc(F)c1Cl [Crizotinib, (R)-3-[1-(2,6-Dichloro-3-fluorophenyl)ethoxy]-5-[1-(piperidin-4-yl)-1H-pyrazol-4-yl]pyridin-2-amine] |  | highly soluble | insoluble | non-hygroscopic | class IV

Reference: patent US20160214961A1, “NOVEL SALTS OF CRIZOTINIB AND THEIR PREPARATION” (SHILPA MEDICARE LIMITED, priority 2013, published 2016)
